In ChEMBL document CHEMBL3621073, “Bile acid amphiphiles with tunable head groups as highly selective antitubercular agents” (Medchemcomm, 2014):
In brackets after ≈: the same amount, converted by molar mass. Activity calls are given as the source filed them. No cut-off for these calls is given here.

Assays:
[1] = test system: Mycobacterium tuberculosis; assay: Antimycobacterial activity against Mycobacterium bovis BCG after 14 days by inverted microscopic analysis; type: functional; conditions: variant bovis BCG, 336 h
[2] = test system: Mycobacterium tuberculosis; assay: Antimycobacterial activity against Mycobacterium bovis BCG assessed as effect on membrane topology by atomic force microscopic analysis; type: functional, organism-based; conditions: variant bovis BCG
[3] = test system: Mycobacterium tuberculosis; assay: Antimycobacterial activity against Mycobacterium bovis BCG assessed as effect on membrane morphology by atomic force microscopic analysis; type: functional, organism-based; conditions: variant bovis BCG
[4] = test system: Mycobacterium tuberculosis; assay: Antimycobacterial activity against Mycobacterium bovis BCG after 14 days by inverted microscopic analysis in presence of plasma; type: functional; conditions: variant bovis BCG, 336 h
[5] = test system: Mycobacterium tuberculosis; assay: Antimycobacterial activity against Mycobacterium bovis BCG assessed as rugged membrane surface by atomic force microscopic analysis; type: functional, organism-based; conditions: variant bovis BCG
[6] = test system: Mycobacterium tuberculosis; assay: Antimycobacterial activity against Mycobacterium bovis BCG assessed as pore and grove formation by atomic force microscopic analysis; type: functional, organism-based; conditions: variant bovis BCG

Row | Structure (SMILES) | MIC99 [1] [µM] | further results
1 | COC(=O)CC[C@@H](C)[C@H]1CC[C@H]2[C@@H]3CC[C@@H]4C[C@H](OC(=O)C[N+](C)(C)C)CC[C@]4(C)[C@H]3CC[C@]12C | 50 | 
2 | C[C@H]1COc2c(N3CCN(C)CC3)c(F)cc3c(=O)c(C(=O)O)cn1c23 [LEVOFLOXACIN] | 0.39 (≈ 0.141 µg/mL) | 
3 | COC(=O)CC[C@@H](C)[C@H]1CC[C@H]2[C@@H]3[C@H](OC(=O)C[N+]4(C)CCCCC4)C[C@@H]4C[C@H](OC(=O)C[N+]5(C)CCCCC5)CC[C@]4(C)[C@H]3CC[C@]12C | 6.25 | 
4 | COC(=O)CC[C@@H](C)[C@H]1CC[C@H]2[C@@H]3CC[C@@H]4C[C@H](OC(=O)C[n+]5ccccc5)CC[C@]4(C)[C@H]3CC[C@]12C | > 50 | 
5 | COC(=O)CC[C@@H](C)[C@H]1CC[C@H]2[C@@H]3CC[C@@H]4C[C@H](OC(=O)C[n+]5ccc(N(C)C)cc5)CC[C@]4(C)[C@H]3C[C@H](OC(=O)C[n+]3ccc(N(C)C)cc3)[C@]12C | 2.34 | 
6 | COC(=O)CC[C@@H](C)[C@H]1CC[C@H]2[C@@H]3[C@H](OC(=O)C[n+]4ccccc4)C[C@@H]4C[C@H](OC(=O)C[n+]5ccccc5)CC[C@]4(C)[C@H]3C[C@H](OC(=O)C[n+]3ccccc3)[C@]12C.[Cl-].[Cl-].[Cl-] | 6.25 | 
7 | COC(=O)CC[C@@H](C)[C@H]1CC[C@H]2[C@@H]3[C@H](OC(=O)C[n+]4ccccc4)C[C@@H]4C[C@H](OC(=O)C[n+]5ccccc5)CC[C@]4(C)[C@H]3CC[C@]12C | 9.38 | 
8 | COC(=O)CC[C@@H](C)[C@H]1CC[C@H]2[C@@H]3[C@H](OC(=O)CN)C[C@@H]4C[C@H](OC(=O)CN)CC[C@]4(C)[C@H]3CC[C@]12C | 37.5 (≈ 19.5 µg/mL) | 
9 | COC(=O)CC[C@@H](C)[C@H]1CC[C@H]2[C@@H]3[C@H](OC(=O)CN)C[C@@H]4C[C@H](OC(=O)CN)CC[C@]4(C)[C@H]3C[C@H](OC(=O)CN)[C@]12C.Cl.Cl.Cl | 18.8 | Activity [2]: inactive; Activity [3]: inactive
10 | COC(=O)CC[C@@H](C)[C@H]1CC[C@H]2[C@@H]3CC[C@@H]4C[C@H](OC(=O)C[n+]5ccccc5)CC[C@]4(C)[C@H]3C[C@H](OC(=O)C[n+]3ccccc3)[C@]12C | 6.25 | 
11 | COC(=O)CC[C@@H](C)[C@H]1CC[C@H]2[C@@H]3[C@H](OC(=O)C[N+]4(C)CCCCC4)C[C@@H]4C[C@H](OC(=O)C[N+]5(C)CCCCC5)CC[C@]4(C)[C@H]3C[C@H](OC(=O)C[N+]3(C)CCCCC3)[C@]12C.[Cl-].[Cl-].[Cl-] | 6.25 | 
12 | COC(=O)CC[C@@H](C)[C@H]1CC[C@H]2[C@@H]3CC[C@@H]4C[C@H](OC(=O)C[n+]5ccc(N(C)C)cc5)CC[C@]4(C)[C@H]3CC[C@]12C | 50 | 
13 | COC(=O)CC[C@@H](C)[C@H]1CC[C@H]2[C@@H]3CC[C@@H]4C[C@H](OC(=O)CN)CC[C@]4(C)[C@H]3CC[C@]12C | > 50 | 
14 | COC(=O)CC[C@@H](C)[C@H]1CC[C@H]2[C@@H]3CC[C@@H]4C[C@H](OC(=O)C[N+]5(C)CCCCC5)CC[C@]4(C)[C@H]3C[C@H](OC(=O)C[N+]3(C)CCCCC3)[C@]12C | 3.12 | 
15 | COC(=O)CC[C@@H](C)[C@H]1CC[C@H]2[C@@H]3[C@H](OC(=O)C[N+](C)(C)C)C[C@@H]4C[C@H](OC(=O)C[N+](C)(C)C)CC[C@]4(C)[C@H]3C[C@H](OC(=O)C[N+](C)(C)C)[C@]12C.[Cl-].[Cl-].[Cl-] | 6.25 | 
16 | NNC(=O)c1ccncc1 [ISONIAZID] | 0.78 (≈ 0.107 µg/mL) | 
17 | COC(=O)CC[C@@H](C)[C@H]1CC[C@H]2[C@@H]3[C@H](OC(=O)C[n+]4ccc(N(C)C)cc4)C[C@@H]4C[C@H](OC(=O)C[n+]5ccc(N(C)C)cc5)CC[C@]4(C)[C@H]3CC[C@]12C | 3.12 | 
18 | COC(=O)CC[C@@H](C)[C@H]1CC[C@H]2[C@@H]3CC[C@@H]4C[C@H](OC(=O)C[N+](C)(C)C)CC[C@]4(C)[C@H]3C[C@H](OC(=O)C[N+](C)(C)C)[C@]12C | 25 | 
19 | COC(=O)CC[C@@H](C)[C@H]1CC[C@H]2[C@@H]3[C@H](OC(=O)C[N+](C)(C)C)C[C@@H]4C[C@H](OC(=O)C[N+](C)(C)C)CC[C@]4(C)[C@H]3CC[C@]12C | 4.68 | 
20 | COC(=O)CC[C@@H](C)[C@H]1CC[C@H]2[C@@H]3CC[C@@H]4C[C@H](OC(=O)C[N+]5(C)CCCCC5)CC[C@]4(C)[C@H]3CC[C@]12C | 50 | 
21 | COC(=O)CC[C@@H](C)[C@H]1CC[C@H]2[C@@H]3CC[C@@H]4C[C@H](OC(=O)CN)CC[C@]4(C)[C@H]3C[C@H](OC(=O)CN)[C@]12C | 25 (≈ 13 µg/mL) | 
22 | COC(=O)CC[C@@H](C)[C@H]1CC[C@H]2[C@@H]3[C@H](OC(=O)C[n+]4ccc(N(C)C)cc4)C[C@@H]4C[C@H](OC(=O)C[n+]5ccc(N(C)C)cc5)CC[C@]4(C)[C@H]3C[C@H](OC(=O)C[n+]3ccc(N(C)C)cc3)[C@]12C.[Cl-].[Cl-].[Cl-] | 3.12 | MIC99 [4]: 6.25 µM; Activity [5]: Active; Activity [6]: Active
